Reference: ChEMBL document CHEMBL1201862, “PubChem BioAssay data set” (2004)
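Tested at 5 concentrations; 48 h exposure; 96-well plates; endpoints linearly interpolated, else capped at highest concentration. GI50 = concentration required for 50% inhibition of growth.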 The source made the active and inactive calls. Rule as the data show it: active = GI50 up to about 1.1 µM and inactive = higher.

How the values were obtained:
Assay in all cases: DTP human tumour cell line panel, 48 h
BT-549 = tested on: BT-549
DU-145 = tested on: DU-145
HOP-62 = tested on: HOP-62
MCF7 = tested on: MCF7
MDA-MB-231 = tested on: MDA-MB-231
MDA-MB-435 = tested on: MDA-MB-435
MDA-N = tested on: MDA-N
NCI-H226 = tested on: NCI-H226
NCI/ADR-RES = tested on: NCI/ADR-RES
PC-3 = tested on: PC-3
SNB-19 = tested on: SNB-19
SR = tested on: SR
T47D = tested on: T47D
TK-10 = tested on: TK-10
UO-31 = tested on: UO-31
HOP-92 = tested on: HOP-92
Hs-578T = tested on: Hs-578T
SK-OV-3 = tested on: SK-OV-3
786-0 = tested on: 786-0

| Structure (SMILES) | GI50 (BT-549) | GI50 (DU-145) | GI50 (HOP-62) | GI50 (MCF7) | GI50 (MDA-MB-231) | GI50 (MDA-MB-435) | GI50 (MDA-N) | GI50 (NCI-H226) | GI50 (NCI/ADR-RES) | GI50 (PC-3) | GI50 (SNB-19) | GI50 (SR) | GI50 (T47D) | GI50 (TK-10) | GI50 (UO-31) | GI50 (HOP-92) | GI50 (Hs-578T) | GI50 (SK-OV-3) | GI50 (786-0) |
| --- | --- | --- | --- | --- | --- | --- | --- | --- | --- | --- | --- | --- | --- | --- | --- | --- | --- | --- | --- |
| CN1C2CCC1CC(C)(O)C2 (stereo unspecified) | > 100 µM (inactive) | > 100 µM (inactive) | > 100 µM (inactive) | > 100 µM (inactive) | > 100 µM (inactive) | > 100 µM (inactive) | > 100 µM (inactive) | > 100 µM (inactive) | > 100 µM (inactive) | > 100 µM (inactive) | > 100 µM (inactive) | > 100 µM (inactive) | > 100 µM (inactive) | > 100 µM (inactive) | > 100 µM (inactive) |  |  |  |  |
| O=C(c1ccco1)C1CC(c2c(O)ccc3ccccc23)=NN1 (stereo unspecified) | 14.9 µM (inactive) | 14.1 µM (inactive) | 13.8 µM (inactive) | 3.15 µM (inactive) | 13.2 µM (inactive) | 4.55 µM (inactive) | 12.6 µM (inactive) | 15.2 µM (inactive) | 17.9 µM (inactive) | 8.79 µM (inactive) | 16.4 µM (inactive) | 2.72 µM (inactive) | 3.33 µM (inactive) | 14.3 µM (inactive) | 11.1 µM (inactive) | 13.6 µM (inactive) | 18.5 µM (inactive) | 21 µM (inactive) |  |
| COc1ccc(/C=C2\CC3C4CC=C5C[C@@H](O)CC[C@]5(C)C4CC[C@]3(C)\C2=N\O)cc1OC (stereo partly specified) | 15.1 µM (inactive) | 26.1 µM (inactive) | 18.2 µM (inactive) | 4.24 µM (inactive) | 16.2 µM (inactive) | 23.3 µM (inactive) | 14.1 µM (inactive) | 7.28 µM (inactive) | 9.18 µM (inactive) | 6.03 µM (inactive) | 70.6 µM (inactive) |  | 3.35 µM (inactive) | 5.09 µM (inactive) | 2.65 µM (inactive) | 29.2 µM (inactive) | 8.77 µM (inactive) | 49.3 µM (inactive) | 5.71 µM (inactive) |
| CC(C)=C1C2CC3(C)CCC2(C)CCC13.CC1=CCC2C3(C)CCC2(C(C)C)C1C3 (stereo unspecified) | 19.8 µM (inactive) | 29.4 µM (inactive) | 22.3 µM (inactive) | 19 µM (inactive) | 22 µM (inactive) | 28.9 µM (inactive) | 25.5 µM (inactive) |  | 18.4 µM (inactive) | 39.3 µM (inactive) | 18.4 µM (inactive) |  | 36.7 µM (inactive) | 25.5 µM (inactive) | 26.7 µM (inactive) | 27.7 µM (inactive) | 18.4 µM (inactive) | > 100 µM (inactive) | 21.5 µM (inactive) |
| O=CCCn1[nH]c(=O)ccc1=O |  |  |  |  |  |  |  | > 100 µM (inactive) |  |  | > 100 µM (inactive) | > 100 µM (inactive) |  | > 100 µM (inactive) | > 100 µM (inactive) | > 100 µM (inactive) |  |  | > 100 µM (inactive) |
| COC(=O)C1(Cc2ccccc2)Cc2cc3c(cc2C1)CCC3 | 35 µM (inactive) | 34.5 µM (inactive) | 50.2 µM (inactive) | 15.5 µM (inactive) | 45.3 µM (inactive) | 12.4 µM (inactive) | 16 µM (inactive) | 22 µM (inactive) | 35.5 µM (inactive) | 24 µM (inactive) | 37.6 µM (inactive) | 13 µM (inactive) | 18.2 µM (inactive) | 68.7 µM (inactive) | 24 µM (inactive) | 11 µM (inactive) | 34.4 µM (inactive) | 32.3 µM (inactive) | 31.3 µM (inactive) |
| Nc1n[nH]c(CCCCCCCc2nnc(N)[nH]2)n1 |  |  | > 100 µM (inactive) |  |  |  |  |  |  |  | > 100 µM (inactive) | > 100 µM (inactive) |  | > 100 µM (inactive) | > 100 µM (inactive) |  |  | > 100 µM (inactive) |  |
| CC(=O)/N=C1/N(/C=C2\C(=O)Oc3ccccc3C2=O)C(=O)/C(=C/c2ccc(OC(C)=O)cc2)N1C |  | > 100 µM (inactive) | > 100 µM (inactive) | > 100 µM (inactive) | > 100 µM (inactive) | > 100 µM (inactive) | > 100 µM (inactive) | > 100 µM (inactive) | > 100 µM (inactive) | > 100 µM (inactive) |  | > 100 µM (inactive) | > 100 µM (inactive) |  |  |  | > 100 µM (inactive) | > 100 µM (inactive) | > 100 µM (inactive) |
| N=c1c2c(=S)n(-c3ccccc3)c(=S)n(-c3ccccc3)c2nc(SCCCN2CCN(c3cccc(Cl)c3)CC2)n1-c1ccccc1 | > 100 µM (inactive) | 52.8 µM (inactive) | 44.7 µM (inactive) | 53.2 µM (inactive) | 22.8 µM (inactive) | 73.8 µM (inactive) |  | 98.6 µM (inactive) | > 100 µM (inactive) | 43.9 µM (inactive) |  | > 100 µM (inactive) |  | 37.5 µM (inactive) |  | 42.3 µM (inactive) | > 100 µM (inactive) | > 100 µM (inactive) |  |
| COc1ccc(/C(Cl)=C(\C=O)c2ccc(OC)cc2)cc1 |  |  | > 100 µM (inactive) |  |  |  |  | > 100 µM (inactive) |  |  | > 100 µM (inactive) | 10.8 µM (inactive) |  | > 100 µM (inactive) | > 100 µM (inactive) |  |  | > 100 µM (inactive) |  |
| CC(=O)OC/C=C\Cn1ncc(=O)[nH]c1=O |  | 24.2 µM (inactive) | 20.8 µM (inactive) | 13 µM (inactive) | 34 µM (inactive) | 18.2 µM (inactive) | 14.9 µM (inactive) | 18 µM (inactive) | 23.1 µM (inactive) | 16 µM (inactive) | 33.4 µM (inactive) |  | 22.1 µM (inactive) |  | 16.1 µM (inactive) | 15.8 µM (inactive) | 27.7 µM (inactive) |  |  |
| COc1ccc(N[S+]([O-])c2ccc(-c3ccccc3)cc2)cc1 (stereo unspecified) |  | > 100 µM (inactive) | 52 µM (inactive) | > 100 µM (inactive) | > 100 µM (inactive) | > 100 µM (inactive) | 97.7 µM (inactive) | > 100 µM (inactive) | 55 µM (inactive) | 22.3 µM (inactive) | 41.8 µM (inactive) | > 100 µM (inactive) |  | > 100 µM (inactive) | > 100 µM (inactive) |  | 0.667 µM (active) |  | > 10 µM (inactive) |
| CCOC(=O)/C=C1/Oc2ccccc2C1(C)O (stereo unspecified) |  |  | > 100 µM (inactive) |  |  |  |  | > 100 µM (inactive) |  |  | > 100 µM (inactive) |  |  | > 100 µM (inactive) | > 100 µM (inactive) | > 100 µM (inactive) |  | > 100 µM (inactive) | > 100 µM (inactive) |
| COC(=O)[C@@H](NC(=O)[C@H](N)Cc1ccc(N(CCCl)CCCl)cc1)C(C)C | 23.4 µM (inactive) | 8.57 µM (inactive) | 19.9 µM (inactive) | 12.5 µM (inactive) | 26.1 µM (inactive) | 19 µM (inactive) | 23.3 µM (inactive) | 18.7 µM (inactive) | 12.6 µM (inactive) | 21.7 µM (inactive) | > 54.1 µM (inactive) | 0.53 µM (active) | 2.86 µM (inactive) | 22.4 µM (inactive) | 12 µM (inactive) | 1.63 µM (inactive) | 26.2 µM (inactive) | 32.7 µM (inactive) | 8.65 µM (inactive) |
| CN(N)c1nc(N)c(C#N)c(C#N)c1C#N | > 10 µM (inactive) | > 10 µM (inactive) | > 10 µM (inactive) | > 10 µM (inactive) | > 10 µM (inactive) | > 10 µM (inactive) | > 10 µM (inactive) |  | > 10 µM (inactive) | > 10 µM (inactive) | > 10 µM (inactive) | > 10 µM (inactive) | > 10 µM (inactive) | > 10 µM (inactive) |  | > 10 µM (inactive) | > 10 µM (inactive) | > 10 µM (inactive) | > 10 µM (inactive) |
| CC1(C)CC[C@]2(C)CC[C@]3(C)C(=CC[C@@H]4[C@@]5(C)CCC(=O)C(C)(C)[C@@H]5[C@H](O)C[C@]43C)[C@@H]2C1 | 20.5 µM (inactive) | 18.2 µM (inactive) | 17 µM (inactive) | 19 µM (inactive) | 11.5 µM (inactive) | 19.9 µM (inactive) | 15.6 µM (inactive) |  | 19.6 µM (inactive) | 17.1 µM (inactive) | 15.3 µM (inactive) |  | 17.3 µM (inactive) | 16.5 µM (inactive) |  | 17.5 µM (inactive) | 19.5 µM (inactive) | 17.6 µM (inactive) | 15.5 µM (inactive) |
| Cc1c2cccc-2ccc2c3ccccc3n(C(=O)c3ccc(Cl)cc3)c12 | > 100 µM (inactive) | > 100 µM (inactive) | > 100 µM (inactive) | 0.479 µM (active) | > 100 µM (inactive) | > 100 µM (inactive) |  | > 100 µM (inactive) | > 100 µM (inactive) | > 100 µM (inactive) | > 100 µM (inactive) | > 63.7 µM (inactive) | 1.39 µM (inactive) | > 100 µM (inactive) | > 100 µM (inactive) | > 100 µM (inactive) | > 91.2 µM (inactive) | > 100 µM (inactive) | > 100 µM (inactive) |
| C[Si](C)(C)OC1(C#N)c2ccccc2CCCC12CCCC2 (stereo unspecified) | > 100 µM (inactive) | 61.1 µM (inactive) | 67.9 µM (inactive) | 30.1 µM (inactive) | 50.9 µM (inactive) | 44.1 µM (inactive) | 46 µM (inactive) | > 100 µM (inactive) | 89.5 µM (inactive) | 41.1 µM (inactive) | 44 µM (inactive) | 29.6 µM (inactive) | 24.7 µM (inactive) | > 100 µM (inactive) | 99.5 µM (inactive) | 29.1 µM (inactive) | 62.1 µM (inactive) | > 100 µM (inactive) | 54.7 µM (inactive) |
